Data taken from PMC9032385, “A2A Adenosine Receptor Antagonists: Are Triazolotriazine and Purine Scaffolds Interchangeable?” (Molecules, 2022).

Legend:
human recombinant A1AR = molecular target: T1, human recombinant A1AR (Homo sapiens, UniProt P30542); test: Radioligand binding at human A1AR ([3H]CCPA displacement, CHO cell membranes); conditions: displacement of [3H]CCPA, n = 3–5, means ± standard errors
T1 construct: expressed in transfected cells; membrane preparation
T1 sequence (P30542 1-326): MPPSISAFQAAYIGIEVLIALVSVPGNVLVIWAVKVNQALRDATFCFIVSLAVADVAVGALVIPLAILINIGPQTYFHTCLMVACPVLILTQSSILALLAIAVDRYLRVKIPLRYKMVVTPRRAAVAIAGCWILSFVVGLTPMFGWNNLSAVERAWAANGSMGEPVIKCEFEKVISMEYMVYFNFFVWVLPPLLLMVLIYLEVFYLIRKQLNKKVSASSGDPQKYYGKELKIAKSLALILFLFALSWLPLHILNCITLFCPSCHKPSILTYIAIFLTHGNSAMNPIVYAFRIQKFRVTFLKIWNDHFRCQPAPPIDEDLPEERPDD
Procedure: The affinities of the newly synthesized compounds 7–13 and 17–21 were determined in binding studies at human recombinant A1, A2A, and A3 ARs, stably transfected in Chinese hamster ovary (CHO) cells, using [^3H]CCPA (2-chloro-N^6-cyclopentylAdo), [^3H]NECA (5′-N-ethylcarboxamidoAdo), and [^3H]HEMADO (2-hexynyl-N^6-methylAdo) as respective radioligands. Most of the compounds were also evaluated at A2BARs in a functional study using the GloSensor cAMP assay. The results are reported in Table 1 as Ki values in nM (± standard errors). In the case of A2BARs, Ki-values were calculated from IC50-values determined by the inhibition of NECA-stimulated adenylyl cyclase activity.
Cell culture: The Chinese hamster ovary cells (CHO) stably transfected with the desired ARs were grown in DMEM/F12 medium containing 10% FBS (fetal bovine serum), 100 U/mL penicillin, 100 µg/mL streptomycin, 2.5 μg/mL amphotericin B, 1 mM sodium pyruvate, 0.1 mg/mL genetecina (G418), and incubated at 37 °C in a gaseous mixture of 5% CO2: […].
Preparation of membranes: Cell membranes for binding assays were prepared mechanically detaching the cells from the petri and suspending them in a cold hypotonic buffer (5 mM Tris/HCl, 2 mM EDTA, pH 7.4). The cell suspension was homogenized (Ultra-Turrax, 2 × 15 s at maximum speed) and the homogenate centrifuged for 10 min (4 °C) to 1000× g. The supernatant was subsequently centrifuged for 30 min (4 °C) at 100,000× g and the pellet containing the membrane proteins was re-suspended in a specific buffer for each receptor subtype (A1: 50 mM Tris/HCl, pH 7.4; A2A: 50 mM Tris/HCl, 10 mM MgCl2, pH 7.4; A3: 50 mM Tris/HCl, 10 mM MgCl2, 1 mM EDTA, pH 8.25). The amount of the protein suspension was determined according to the […] using the BCA Protein Assay Kit (Pierce), frozen in liquid nitrogen, and stored at −80 °C.
Binding assays: The dissociation constants of the radioligand (KD) were calculated through saturation assays, while the dissociation constants of the compounds under study (Ki) were determined by competition experiments. All binding data were calculated by nonlinear regression curves using the software GraphPad Prism 5 (GraphPad Software, San Diego, CA, USA). The increasing concentrations of the radioligand saturation binding ([^3H]-CCPA for the A1 receptor subtype, [^3H]-NECA for the A2A receptor subtype, and [^3H]-HEMADO for the A3 receptor) subtype were incubated in a total volume of 250 μL containing 0.2 U/mL of Ado deaminase (ADA) and 12 micrograms of membrane proteins in the specific buffer. In competition experiments for the A1 receptor subtype, each compound was added at increasing concentrations, to the well containing 1 nM of [^3H]-CCPA, to a final volume of 200 μL. The samples were left to incubate for 3 h at room temperature, filtered in a filter 96-well plate (UniFilter GF/C, Perkin-Elmer Life and Analytical Science, Boston, MA) using the FilterMate Cell Harvester (Perkin-Elmer), and washed 3 times with cold distilled water. After drying the filter plate at 40 °C for 30′, they 20 μL of scintillating liquid (Microscint-20, Perkin-Elmer) was added to each well, and then the radioactivity was quantized with the MicroBeta2 Plate Counter (Perkin-Elmer). The conditions for binding experiments at A2A and A3 receptor subtypes were essentially the same as for the A1AR using [^3H]-NECA (N-ethylcarboxyamideAdo) at a concentration of 10 nM and [^3H]-HEMADO (2-(1-hexyne)-N^6-methylAdo) at a concentration of 1 nM as radioligands, respectively. The samples were incubated with 12 micrograms of protein for 3 h at room temperature and filtered as described above.
The non-specific binding was determined in the presence of 1 mM theophylline for the A1AR, or 100 µM R-PIA (N^6-(1-methyl-2-phenylethyl)Ado) for the A2A and A3 receptors.

[1] = system: BV-2 murine microglial cells; test: MTT viability assay in BV-2 cells; format: cell-based; conditions: 24 h, 50–5000 nM, up to 5 μM
Procedure: First of all, we verified the potential cytotoxicity of 13 in our cell model system. BV-2 cells were treated with increasing concentrations of the compound for 24 h and cell viability was evaluated by MTT assay (Figure 4A).
Cell Cultures and Treatments: BV-2 murine microglial cells (a gift from Prof. Elisabetta Blasi of the University of Modena and Reggio Emilia, Modena, Italy) were maintained at 37 °C and 5% CO2 in a humidified incubator and grown in DMEM supplemented with 10% (v/v) low-endotoxin fetal bovine serum (Euroclone—Milan, Italy), 2 mM L-glutamine, 50 U/mL penicillin, and 50 μg/mL streptomycin (Sigma-Aldrich–Merck, Milan, Italy). Cells were seeded at 50,000 cells/mL in 96-well tissue culture plates for the viability assay, in 6-well tissue culture plates for the Griess assay and RT-PCR assay. BV-2 cells were treated for 24 h with ANR 94 or 13 at different concentrations and then exposed to LPS (100 ng/mL; Sigma-Aldrich–Merck) for a further 24 h.
MTT Viability Assay: MTT assay was performed to quantify the viability of BV-2 cells as previously reported. […] The absorbance was measured at 595 nm using a microplate spectrophotometer (VICTOR3 V Multilabel Counter; PerkinElmer, Wellesley, MA, USA). Data are expressed as a percentage of the control cells, which is considered 100% cell viability.

CCn1c(-c2ccco2)nc2c(N)nc(NCCc3ccc(O)cc3)nc21 [compound 13, 4-(2-((6-Amino-9-ethyl-8-(furan-2-yl)-9H-purin-2-yl)amino)ethyl)phenol]
Ki (human recombinant A1AR): 51 nM
cytotoxicity (cell viability, MTT) [1]: did not show any cytotoxicity
